Target: Prostaglandin G/H synthase 1 (Bos taurus) (UniProt O62664)
Test: Inhibitory activity against bovine seminal vesicle prostaglandin synthetase

Chain of Prostaglandin G/H synthase 1 (Bos taurus) (O62664 whole entry, looked up): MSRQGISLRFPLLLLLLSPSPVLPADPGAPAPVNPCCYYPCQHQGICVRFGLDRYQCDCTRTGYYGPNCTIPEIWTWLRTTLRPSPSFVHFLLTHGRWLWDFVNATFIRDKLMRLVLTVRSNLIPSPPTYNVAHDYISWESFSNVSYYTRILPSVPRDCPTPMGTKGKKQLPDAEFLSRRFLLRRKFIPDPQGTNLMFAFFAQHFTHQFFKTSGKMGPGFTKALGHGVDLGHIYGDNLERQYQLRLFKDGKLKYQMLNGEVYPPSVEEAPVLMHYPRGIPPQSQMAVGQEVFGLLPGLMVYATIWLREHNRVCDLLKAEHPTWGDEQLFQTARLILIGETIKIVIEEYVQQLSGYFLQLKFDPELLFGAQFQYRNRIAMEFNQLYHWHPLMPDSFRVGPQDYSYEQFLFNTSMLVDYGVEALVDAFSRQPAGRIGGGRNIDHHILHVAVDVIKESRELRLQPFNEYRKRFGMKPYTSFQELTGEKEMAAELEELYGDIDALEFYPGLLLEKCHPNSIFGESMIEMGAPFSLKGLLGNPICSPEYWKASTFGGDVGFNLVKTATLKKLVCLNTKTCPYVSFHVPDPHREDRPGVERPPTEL

IC50: 6.2 µM
Compound: CS(=O)(=O)c1ccc(-c2[nH]c(SC#N)cc2-c2ccc(F)cc2)cc1 [3-(4-Fluoro-phenyl)-2-(4-methanesulfonyl-phenyl)-5-thiocyanato-1H-pyrrole]

— BindingDB's records for doi:10.1021/jm00033a017 (Dupont Pharmaceuticals, 1994)
